Reference: patent publication US7166617B2, “Cyclic amide derivatives” (Mitsubishi Pharma Corporation, priority 2000, dated 2007)
Counter-ions that a name gives are not always drawn.

Target: T1, sigma 2 receptor (Rattus norvegicus, UniProt Q5U3Y7)
T1 construct: A crude P2 membrane fraction was prepared from livers of male rats (Sprague-Dawley rats); from tissue; host or cells: rat liver (male Sprague-Dawley), crude P2 membrane fraction
T1 sequence (Q5U3Y7 1-176): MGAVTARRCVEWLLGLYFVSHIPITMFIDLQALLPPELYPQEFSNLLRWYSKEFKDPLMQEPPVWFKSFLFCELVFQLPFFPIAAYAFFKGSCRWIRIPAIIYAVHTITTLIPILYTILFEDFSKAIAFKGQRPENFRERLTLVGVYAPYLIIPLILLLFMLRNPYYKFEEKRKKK
Assay: Sigma 2-selective receptor binding inhibition test ([3H]-DTG, rat liver P2 membrane fraction)
Conditions: [3H]-DTG 1 nM, 500 nM pentazocine, P2 fraction of livers of male Sprague-Dawley rats, 25° C., 2 hours
Procedure: Sigma Binding Site-Binding Inhibition Test
A crude P2 membrane fraction was prepared from livers of male rats (Sprague-Dawley rats) according to a method described in the literature (X. He, et al., J. Med. Chem., 36, pp. 566–571, 1993). In the presence of 500 nM pentazocine and a control compound at various concentrations (haloperidol, 10^−10 to 10^−6 M) or a test ligand at various concentrations (10^−10 to 10^−5 M) together with a radioactive ligand, the P2 fraction (0.4 ml) was incubated in 50 mM Tris-HCl (pH 7.4, final volume: 0.5 ml) at 25° C. for 2 hours. The reaction mixture was rapidly filtered on a Brandel cell harvester using Whatman GF/B filter paper, which was immersed beforehand in 0.5% polyethyleneimine for 1 hour, to stop the reaction. The filter paper was washed 4 times with the ice cooled incubation buffer. The non-specific results were evaluated by using 1 μM haloperidol, and the scintillation analysis and the curve analysis were performed as described above.

| SMILES | Ki |
| --- | --- |
| O=C(CCN1CCC(CN2Cc3ccccc3C2=O)CC1)c1ccccc1 [Example 30, 2-[[1-[3-Phenyl-3-oxopropyl]piperidin-4-yl]methyl]isoindolin-1-one hydrochloride] | 22 nM |
| O=C(CN1CCC(CN2Cc3ccc(F)cc3C2=O)CC1)c1ccc(F)cc1 [Example 7, 6-Fluoro-2-[[1-[2-(4-fluorophenyl)-2-oxoethyl]piperidin-4-yl]methyl]isoindolin-1-one hydrochloride] | 16 nM |
| O=C(CN1CCC(CN2Cc3ccsc3C2=O)CC1)c1ccc(F)cc1 [Example 22, 5-[[1-[2-(4-Fluorophenyl)-2-oxoethyl]piperidin-4-yl]methyl]-4,5-dihydro-6H-thieno[2,3-c]pyrrol-6-one hydrochloride] | 22 nM |
| O=C1c2ccc(Br)cc2CN1CC1CCN(CCc2ccc(F)cc2)CC1 [Example 160, 5-Bromo-2-[1-[2-(4-fluorophenyl)ethyl]piperidin-4-ylmethyl]isoindolin-1-one fumarate] | 10 nM |

Same assay, conditions: test compound 10 nM; [3H]-DTG 1 nM, 500 nM pentazocine, rat liver P2 fraction

| SMILES | Inhibitory rate against sigma 2 (%, 10 nM) |
| --- | --- |
| Cl.O=C(CN1CCC(CN2Cc3ccccc3C2=O)CC1)c1cccn1-c1ccccc1 [Example 95, 2-[[1-[2-[2-(1-Phenyl)pyrrolyl]-2-oxoethyl]piperidin-4-yl]methyl]-isoindolin-1-one hydrochloride] | 69% |

Same assay, conditions: test compound 10 nM; [3H]-DTG 1 nM, 500 nM pentazocine, rat liver P2 fraction; read-out: Inhibitory rate against sigma 2 (%, 10 nM)

| SMILES | inhibition at 0.01 µM |
| --- | --- |
| COc1cccc(SCCN2CCC(CN3Cc4ccccc4C3=O)CC2)c1 [Example 111, 2-[[1-[2-(3-Methoxyphenylthio)ethyl]piperidin-4-yl]methyl]isoindolin-1-one fumarate] | 51% |
| O=C1c2ccccc2CN1CC1CCN(CCc2cccc3ccccc23)CC1 [Example 97, 2-[[1-[2-(1-Naphthyl)ethyl]piperidin-4-yl]methyl]isoindolin-1-one fumarate] | 59% |
| O=C1c2ccccc2CN1CC1CCN(CCN2CCc3ccccc32)CC1 [Example 53, 2-[[1-[2-(Indolin-1-yl)ethyl]piperidin-4-yl]methyl]isoindolin-1-one fumarate] | 57% |
| O=C(CN1CCC(CN2Cc3ccoc3C2=O)CC1)c1ccc(F)cc1 [Example 158, 5-[[1-[2-(4-Fluorophenyl)-2-oxoethyl]piperidin-4-yl]methyl]-4,5-dihydro-6H-furo[2,3-c]pyrrol-6-one fumarate] | 57% |
| Cc1ccccc1C(=O)CN1CCC(CN2Cc3ccccc3C2=O)CC1 [Example 77, 2-[[1-[2-(2-Tolyl)-2-oxoethyl]piperidin-4-yl]methyl]isoindolin-1-one fumarate] | 80% |
| O=C1c2ccccc2CN1CC1CCN(CCc2ccccc2C(F)(F)F)CC1 [Example 96, 2-[[1-[2-(2-Trifluoromethylphenyl)ethyl]piperidin-4-yl]methyl]-isoindolin-1-one fumarate] | 66% |
| O=C1c2ccccc2CN1CC1CCN(CC(=O)N2CCCc3ccccc32)CC1 [Example 48, 2-[[1-[2-(1,2,3,4-Tetrahydroquinolin-1-yl)-2-oxoethyl]piperidin-4-yl]methyl]isoindolin-1-one hydrochloride] | 59% |
| O=C1c2ccccc2CN1CC1CCN(CCSc2ccccc2F)CC1 [Example 112, 2-[[1-[2-(2-Fluorophenylthio)ethyl]piperidin-4-yl]methyl]isoindolin-1-one fumarate] | 60% |
